Consider 2 molecules from paper PMC12467234, “Label-Free and Ultrasensitive APE1 Detection Based on Hybridization Chain Reaction Combined with G-Quadruplex” (Biomolecules, 2025).

The assay deals with T1, Apurinic/apyrimidinic endonuclease 1 (APE1) (Homo sapiens, UniProt P27695).
T1 construct: gene APEX1
The experiment in a line: fluorescent HCR/G-quadruplex-ThT assay of AP-site cleavage by purchased APE1; also in cell lysates. It is filed as biochemical.

The term IC50 denotes the point on the concentration scale where inhibition reaches its midpoint.

Where two headings read alike, the source gives them in different places.

T1 sequence (P27695 2-318): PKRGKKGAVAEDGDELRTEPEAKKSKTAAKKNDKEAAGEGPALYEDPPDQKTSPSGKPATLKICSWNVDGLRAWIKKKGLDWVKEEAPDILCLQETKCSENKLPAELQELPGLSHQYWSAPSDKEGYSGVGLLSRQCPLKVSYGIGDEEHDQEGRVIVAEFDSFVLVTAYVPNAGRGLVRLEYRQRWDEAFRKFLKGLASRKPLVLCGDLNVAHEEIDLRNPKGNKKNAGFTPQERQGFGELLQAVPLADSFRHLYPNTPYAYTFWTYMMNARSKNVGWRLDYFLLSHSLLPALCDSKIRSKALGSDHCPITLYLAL

Molecule `O=C(O)c1cc2cccc([N+](=O)[O-])c2[nH]1` [NCA, 7-nitroindole-2-carboxylic acid] came in with an IC50 of approximately 3.5 µM.

As for `CO/N=C(\C(=O)N[C@@H]1C(=O)N2C(C(=O)O)=C(COC(C)=O)CS[C@H]12)c1csc(N)n1` [cefotaxime sodium], the IC50 (read-out: IC50) was approximately 75 µM.
